Source: patent US8546137B2, “Inhibition of dendritic cell-driven regulatory T cell activation and potentiation of tumor antigen-specific T cell responses by interleukin-15 and MAP kinase inhibitor” (The Board of Trustees of the University of Arkansas, priority 2007, dated 2013)

What was measured:
[1] = system: hepsin 48-84 peptide-specific CD4+ T cells; experiment: TNFα expression by CD4+ T cells stimulated with treated DC; assay type: cell-based, human; conditions: DC treated throughout culture; IL-15 100 ng/ml, inhibitor 10 μM; relative to standard DC; T cells maintained with IL-2
Experimental: (§1) Foxp3 expression was determined according to the manufacturer's staining protocol (eBioscience), using the provided fixation and permeabilization buffers. Intracellular cytokine expression was measured by flow cytometry after overnight co-culture of T cells with peptide-pulsed or control autologous LCL. T cells (1.5×10^6) were plated in 12 well Costar plates in 2 ml RPMI/10Hu. T cells were stimulated with phorbol myristyl acetate (50 ng/ml) and ionomycin (500 ng/ml) as a positive control. At the onset of co-culture, 10 μg/ml of Brefeldin A was added to block cytokine release. Cells were collected after overnight stimulation and fixed in 2% paraformaldehyde in PBS for 10 minutes at room temperature. The cells were washed once in PBS and again in 0.5% saponin and 1% BSA in PBS. T cells were labeled with cytokine-specific PE or FITC-conjugated mAb for 30 minutes at room temperature. After staining, the cells were washed twice in 0.5% saponin and 1% BSA in PBS, once with 0.5% BSA in PBS, and fixed in 2% paraformaldehyde in PBS. Samples were analyzed with a FACSCalibur (Becton-Dickinson) and Cellquest or WinMDI software.
Treatment of DC with IL-15 and a p38 MAP kinase inhibitor enhances CD4^+ helper T cell TNFα expression in response to tumor antigen stimulation, and diminishes Treg foxp3 expression. […]

[2] = system: tumor antigen-specific CD4+ T cells; experiment: CCR4 and CXCR4 expression by CD4+ T cells stimulated with treated DC; assay type: cell-based, human; conditions: treatment of DC
Experimental: (§2) Treatment of DC with IL-15 and a p38 MAP kinase inhibitor enhances CD4^+ helper T cell TNFα expression in response to tumor antigen stimulation, and diminishes Treg foxp3 expression. DC were treated with IL-15 (100 ng/ml) and/or a p38 MAP kinase inhibitor (10 μM p38 MAP kinase inhibitor III, from Calbiochem, La Jolla, Calif.) throughout their culture (i.e., from day 0 through completion of DC maturation on day 7). DC were loaded with the hepsin 48-84 peptide antigen on day 5 (i.e., at the time of addition of maturation cytokines).

[3] = system: tumor antigen-specific CD4+ T cells; experiment: PD-1 expression by CD4+ T cells stimulated with treated DC; assay type: cell-based, human; conditions: treatment of DC
Experimental: as §2

[4] = system: matriptase 170-204 peptide-specific, DC-activated CD4+ T cells; experiment: Foxp3 and GITR expression by flow cytometry, CD4+ T cells; assay type: cell-based, human
Experimental: (§3) Peripheral blood was drawn from healthy adult volunteer donors, following an IRB-approved protocol. PBMC were recovered by gradient centrifugation (Lymphoprep; Greiner Bio-One, Longwood, Fla.). For preparation of DC, PBMC were placed in 6 well plates (Costar, Cambridge, Mass.) at a concentration of 5×10^6/well in AIM-V medium. After incubation for 2-3 hours at 37° C., non-adherent cells were removed and the medium was replaced with AIM-V plus 800 U/ml GM-CSF and 500 U/ml IL-4. On days 3 and 5, half the medium was removed and replaced with AIM-V plus 800 U/ml GM-CSF and 500 U/ml IL-4. Maturation cytokines (1 μM/ml PGE2, 1000 U/ml TNFα, and 500 U/ml IL-1β) were added on day 5. Where indicated, IL-15 (100 ng/ml) was present throughout DC culture (i.e., from day 0, and supplemented on days 3 and 5). For stimulation of peptide-specific CD4^+ helper T cell and CD8^+ CTL responses, DC were loaded with 50 μg/ml of peptide on day 5 (at the time of addition of maturation cytokines) and the DC were harvested 2 days later. The DC were then washed once with AIM-V medium and used for T cell stimulation at a PBMC:DC ratio of 30:1. After 7 days, T cells were collected and restimulated with peptide-loaded DC. After the second stimulation, CD4^+ or CD8^+ T cells were recovered by positive selection with anti-CD4 or anti-CD8 magnetic beads (Dynabeads, Invitrogen), respectively, yielding populations of at least 95% purity. During the second and subsequent T cell passages (up to a maximum of six restimulations with peptide-loaded DC, at T cell:DC ratios of between 30:1 and 10:1), 20-100 U/ml IL-2 was added to the medium, and the cultures were periodically fed (every 2-3 days) by changing 50-70% of the medium and addition of fresh IL-2. Where indicated, T cell cultures were supplemented with 100 ng/ml IL-15, starting with the second passage.
as §1, with “T cells were labeled with cytokine-specific PE or FITC-conjugated mAb for 30 minutes at room temperature. After staining, the cells were washed twice in 0.5% saponin and 1% BSA in PBS, once with 0.5% BSA in PBS, and fixed in 2% paraformaldehyde in PBS.” left out

[5] = system: matriptase 170-204 peptide-specific, DC-activated CD8+ T cells; experiment: Foxp3 and GITR expression by flow cytometry, CD8+ T cells; assay type: cell-based, human
Experimental: as §3, with “During the second and subsequent T cell passages (up to a maximum of six restimulations with peptide-loaded DC, at T cell:DC ratios of between 30:1 and 10:1), 20-100 U/ml IL-2 was added to the medium, and the cultures were periodically fed (every 2-3 days) by changing 50-70% of the medium and addition of fresh IL-2. Where indicated, T cell cultures were supplemented with 100 ng/ml IL-15, starting with the second passage.” left out
(§4) Foxp3 expression was determined according to the manufacturer's staining protocol (eBioscience), using the provided fixation and permeabilization buffers. Intracellular cytokine expression was measured by flow cytometry after overnight co-culture of T cells with peptide-pulsed or control autologous LCL. […] Samples were analyzed with a FACSCalibur (Becton-Dickinson) and Cellquest or WinMDI software.

[6] = system: matriptase 170-204 peptide-specific CD4+ T cells; experiment: Treg assay: coculture of peptide-specific CD4+ T cells with autologous alloreactive CD4+ T cells (MLR, 3H-TdR); assay type: cell-based, human
Experimental: as §3
DC-activated, peptide-specific T cells were tested for Treg activity in 3 day microwell cocultures with autologous alloreactive CD4^+ T cells at a 1:1 ratio. The alloreactive CD4^+ T cells were stimulated with irradiated (7,500 cGy) allogeneic LCL at a 2:1 ratio. Transwell cocultures were conducted in 12-well Costar plates with 0.4 μm polycarbonate membrane inserts, at the same cell ratios as conventional microwell cocultures. Peptide-specific T cells were placed in the upper chamber, and alloreactive CD4^+ T cells plus irradiated allogeneic LCL were placed in the lower chamber. For all assays, proliferation of alloreactive CD4^+ T cells was determined by addition of 1 μCi/well ^3H-TdR for the last 16 hours of incubation. No exogenous cytokines were added to Treg coculture assays. Controls were included to correct for background proliferation of individual cell populations or spontaneous alloreactivity of peptide-specific T cells.

[7] = system: matriptase 170-204 peptide-specific CD8+ T cells; experiment: Treg assay: coculture of peptide-specific CD8+ T cells with autologous alloreactive CD4+ T cells (MLR, 3H-TdR); assay type: cell-based, human
Experimental: (§5) Peripheral blood was drawn from healthy adult volunteer donors, following an IRB-approved protocol. PBMC were recovered by gradient centrifugation (Lymphoprep; Greiner Bio-One, Longwood, Fla.). For preparation of DC, PBMC were placed in 6 well plates (Costar, Cambridge, Mass.) at a concentration of 5×10^6/well in AIM-V medium. After incubation for 2-3 hours at 37° C., non-adherent cells were removed and the medium was replaced with AIM-V plus 800 U/ml GM-CSF and 500 U/ml IL-4. On days 3 and 5, half the medium was removed and replaced with AIM-V plus 800 U/ml GM-CSF and 500 U/ml IL-4. Maturation cytokines (1 μM/ml PGE2, 1000 U/ml TNFα, and 500 U/ml IL-1β) were added on day 5. Where indicated, IL-15 (100 ng/ml) was present throughout DC culture (i.e., from day 0, and supplemented on days 3 and 5). For stimulation of peptide-specific CD4^+ helper T cell and CD8^+ CTL responses, DC were loaded with 50 μg/ml of peptide on day 5 (at the time of addition of maturation cytokines) and the DC were harvested 2 days later. […]
DC-activated, peptide-specific T cells were tested for Treg activity in 3 day microwell cocultures with autologous alloreactive CD4^+ T cells at a 1:1 ratio. […] For all assays, proliferation of alloreactive CD4^+ T cells was determined by addition of 1 μCi/well ^3H-TdR for the last 16 hours of incubation. […]

[8] = system: matriptase 170-204 peptide-specific CD4+ T cells; experiment: Intracellular Th1 cytokine (TNFα, IFNγ) expression after challenge with peptide-loaded autologous LCL; assay type: cell-based, human
Experimental: as §5, with “5).” for “5). For stimulation of peptide-specific CD4^+ helper T cell and CD8^+ CTL responses, DC were loaded with 50 μg/ml of peptide on day 5 (at the time of addition of maturation cytokines) and the DC were harvested 2 days later.”
as §4

[9] = system: peptide-loaded autologous LCL; experiment: 51Cr-release cytotoxicity assay, CD4+ T cells against peptide-loaded autologous LCL; assay type: cell-based, human
Experimental: as §5, with “later. The DC were then washed once with AIM-V medium and used for T cell stimulation at a PBMC:DC ratio of 30:1. After 7 days, T cells were collected and restimulated with peptide-loaded DC.” for “later.”
(§6) Standard ^51Cr-release assays were performed as described (24). […] The percentage of target cell lysis was calculated as described (24).

[10] = system: peptide-loaded autologous LCL; experiment: 51Cr-release cytotoxicity assay, CD8+ T cells against peptide-loaded autologous LCL; assay type: cell-based, human
Experimental: as §5, with “later. The DC were then washed once with AIM-V medium and used for T cell stimulation at a PBMC:DC ratio of 30:1. After 7 days, T cells were collected and restimulated with peptide-loaded DC.” for “later.”
as §6

[11] = system: CD25 preferentially expressed by CD4+ Treg; conditions: patients with renal cell carcinoma, combined with tumor RNA-transfected DC vaccination; cited from earlier work
[12] = IL-15 added to CD4+ T cell cultures activated with conventional DC
[13] = conventional DC or IL-15-treated DC, T cells maintained with IL-2 plus IL-15

Substance: p38 MAP kinase inhibitor III [reference compound]
- CD4+ T cell TNFα expression upon tumor antigen stimulation [1]: did not significantly increase
- CD4+ T cell expression of CCR4 [2]: markedly enhanced
- CD4+ T cell expression of CXCR4 [2]: inhibited
- PD-1 expression by tumor antigen-specific CD4+ helper T cells [3]: markedly reduces

Substance: IL-15: interleukin-15, cytokine from R & D Systems, used at 100 ng/ml in DC and/or T cell culture
- Foxp3 expression by CD4+ T cells [4, 12]: did not result in a significant change
- frequency of GITR+ CD4+ T cells (total) [4, 12]: 8%
- Foxp3 expression, proportion of CD4+ T cells ([4]; activated with IL-15-treated DC (100 ng/ml), maintained with IL-2, conventionally activated cells 33%): 20%
- frequency of Foxp3+ and GITR+ CD4+ T cells ([4]; activated with IL-15 treated DC and maintained with IL-2 plus IL-15): markedly enhanced
- Foxp3 expression, proportion of CD8+ T cells ([5]; activated with IL-15-treated DC, maintained with IL-2): 37%
- GITR expression by CD8+ T cells [5, 13]: did not show increased GITR expression
- frequency of Foxp3+ CD8+ T cells [5, 13]: elevated frequencies
- restoration of the mixed lymphocyte reaction (CD4+ Treg activity) ([6]; IL-15-treated DC, or IL-15 treatment of CD4+ T cells activated with conventional DC): significant restoration
- inhibition of the mixed lymphocyte reaction by peptide-specific CD4+ T cells (Treg activity) ([6]; T cells cultured with IL-15, or activated by DC cultured with IL-15, or both (bars B, C, D), conventional about 90%): less than 60%
- restoration of the mixed lymphocyte reaction (CD4+ Treg activity) ([6]; both DC and CD4+ T cells treated with IL-15): further enhancement of alloreactivity
- restoration of the mixed lymphocyte reaction (CD4+ Treg activity) ([6]; peptide-specific CD4+ T cells irradiated before coculture, IL-15 on DC, T cells or both): almost total restoration of the MLR
- CD8+ Treg activity ([7]; IL-15 treatment of DC alone): particularly effective in diminishing
- CD8+ regulatory function ([7]; IL-15 treatment of DC, of CD8+ T cells, or both): markedly diminished
- antigen-driven cytokine responses (TNFα, IFNγ) of CD4+ T cells ([8]; combined IL-15 treatment of both DC and CD4+ T cells): synergistic gain
- frequency of CD4+ T cells expressing TNFα and IFNγ ([8]; treatment of DC with IL-15 or treatment of CD4+ T cells with IL-15): small increment
- CD4+ T cell lysis of peptide-loaded LCL ([9]; IL-15-treated DC followed by culture with IL-2 plus IL-15, additive): further gain in lysis
- CD4+ T cell cytotoxicity ([9]; IL-15 treatment of DC or CD4+ T cells): marked enhancement
- gain in lysis, CD8+ T cell cytotoxicity ([10]; IL-15 treatment of DC or CD8+ T cells): lower than observed for CD4^+ T cell responses
- CD8+ T cell cytotoxicity against peptide-loaded LCL ([10]; combined treatment of both DC and CD8+ T cells with IL-15): strong synergistic increase
- CD4+ T cell TNFα expression upon tumor antigen stimulation [1]: did not significantly increase
- CD4+ T cell expression of CCR4 [2]: slightly inhibited
- CD4+ T cell expression of CXCR4 [2]: enhances
- PD-1 expression by tumor antigen-specific CD4+ helper T cells [3]: markedly reduces

Substance: denileukin diftitox
- Treg in the peripheral blood [11]: reduced numbers of Treg
- generation of tumor-specific T cell responses [11]: enhanced generation of tumor-specific T cell responses
